The target of assay [1] is 5-hydroxytryptamine receptor 2A (Homo sapiens, UniProt P28223). Briefly: In vitro binding affinity at human cloned 5-hydroxytryptamine 2A receptor of HEK293 cells by [3H]ketanserin displacement. It counts as cell-based.
Assay [2] has as its target T1, 5-hydroxytryptamine receptor 2C (Homo sapiens, UniProt P28335).
T1 sequence (P28335 whole entry): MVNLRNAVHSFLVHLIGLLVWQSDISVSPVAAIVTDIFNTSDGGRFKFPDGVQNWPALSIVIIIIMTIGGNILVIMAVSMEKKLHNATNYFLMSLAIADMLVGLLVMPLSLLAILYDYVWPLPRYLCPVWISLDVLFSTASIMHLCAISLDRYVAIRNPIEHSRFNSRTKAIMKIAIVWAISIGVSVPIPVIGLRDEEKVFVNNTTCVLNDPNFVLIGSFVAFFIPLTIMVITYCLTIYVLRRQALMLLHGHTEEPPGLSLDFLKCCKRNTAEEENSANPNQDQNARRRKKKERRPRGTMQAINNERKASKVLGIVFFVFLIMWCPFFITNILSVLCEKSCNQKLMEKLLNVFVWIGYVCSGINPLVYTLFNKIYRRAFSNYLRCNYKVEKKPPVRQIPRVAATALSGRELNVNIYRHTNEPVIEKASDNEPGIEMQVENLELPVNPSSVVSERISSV
Briefly: In vitro binding affinity at human cloned 5-hydroxytryptamine 2C receptor of HEK293 cells by [3H]mesulergine displacement. It is filed as cell-based.

The target of assay [3] is 5-hydroxytryptamine receptor 2B (Homo sapiens, UniProt P41595). As to the kind of experiment: In vitro binding affinity at human cloned 5-hydroxytryptamine 2B receptor of HEK293 cells by [3H]5-HT displacement. It counts as cell-based.
Chain of 5-hydroxytryptamine receptor 2B (P41595 whole entry): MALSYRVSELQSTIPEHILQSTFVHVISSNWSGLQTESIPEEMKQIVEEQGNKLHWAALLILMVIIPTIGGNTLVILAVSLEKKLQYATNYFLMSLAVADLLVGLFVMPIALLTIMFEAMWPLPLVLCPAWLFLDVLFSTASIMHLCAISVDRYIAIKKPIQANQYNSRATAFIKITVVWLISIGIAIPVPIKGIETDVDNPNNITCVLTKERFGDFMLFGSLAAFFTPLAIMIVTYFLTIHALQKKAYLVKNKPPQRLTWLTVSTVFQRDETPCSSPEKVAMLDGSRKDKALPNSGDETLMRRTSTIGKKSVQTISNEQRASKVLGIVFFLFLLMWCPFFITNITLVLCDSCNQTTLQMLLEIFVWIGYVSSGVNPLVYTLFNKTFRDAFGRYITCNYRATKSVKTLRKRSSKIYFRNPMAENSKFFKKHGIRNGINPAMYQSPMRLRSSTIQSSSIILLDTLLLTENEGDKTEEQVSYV
Assay [4] has as its target Serotonin 2 receptors; 5-HT2a & 5-HT2c (Homo sapiens) (UniProt P28223+P28335). As to the kind of experiment: Selectivity at 5-HT 2C receptor compared to serotonin 5-HT 2A receptor. It counts as protein assay.
In assay [5] the target is Serotonin receptor (2b and 2c) (Homo sapiens) (UniProt P41595+P28335). As to the kind of experiment: Selectivity at serotonin 5-HT 2C receptor compared to serotonin 5-HT 2B receptor. It is filed as protein assay.
Assay [6] deals with Rattus norvegicus. As to the kind of experiment: Dose required to reverse mCPP induced hypolocomotion by 50% at 7 mg/kg, ip administration 30 min pretest in rat. It is filed as functional. The following applies: po, 0.5 h, read-out: ID50 (the source's name).
For assay [7], the system named is Rattus norvegicus. As to the kind of experiment: Percent reversal of mCPP induced hypolocomotion after peroral administration at 5 mg/kg in rat. It is filed as functional. Conditions: route oral.

SMILES strings stand for the structures.

Broadly, the Ki is the dissociation constant of the complex between target and ligand, obtained from inhibition or displacement.

Chain of 5-hydroxytryptamine receptor 2A (P28223 whole entry): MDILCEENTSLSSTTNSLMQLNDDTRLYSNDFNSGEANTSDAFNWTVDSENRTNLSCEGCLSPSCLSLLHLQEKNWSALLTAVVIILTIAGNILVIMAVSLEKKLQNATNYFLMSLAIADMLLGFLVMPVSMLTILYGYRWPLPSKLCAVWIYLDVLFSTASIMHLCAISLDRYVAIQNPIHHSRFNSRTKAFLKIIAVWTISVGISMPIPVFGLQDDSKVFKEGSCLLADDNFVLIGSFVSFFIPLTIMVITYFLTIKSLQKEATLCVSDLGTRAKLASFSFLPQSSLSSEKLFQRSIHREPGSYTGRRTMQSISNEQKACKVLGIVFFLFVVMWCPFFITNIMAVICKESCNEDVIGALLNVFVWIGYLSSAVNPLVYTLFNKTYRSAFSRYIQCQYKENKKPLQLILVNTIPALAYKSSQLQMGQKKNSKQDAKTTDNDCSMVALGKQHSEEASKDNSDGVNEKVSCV
Chain of Serotonin 2 receptors; 5-HT2a & 5-HT2c (Homo sapiens) (P28223 whole entry, looked up, one chain of several): as the sequence (P28223 whole entry) above

In the case of `Cc1cc2c(cc1Cl)N(C(=O)Nc1ccc(OCc3cccnc3)nc1)CC2`, the inhibition constant Ki in assay [1] is above 794 nM; in assay [2], 25.1 nM; in assay [3], 25.1 nM. For the same molecule, the values for the Selectivity in assay [4] and in assay [5] were above 30 and 1, respectively.
On to `O=C(Nc1ccc(OCc2ccccn2)nc1)N1CCc2cc(Cl)ccc21`, for which the inhibition constant (Ki) was above 5010 nM in assay [1], 31.6 nM in assay [2] and 1000 nM in assay [3]. Further, the figures for the Selectivity in assay [4] and in assay [5] were above 160 and 30, respectively.
As to `O=C(Nc1ccc(OCc2ccccn2)nc1)N1CCc2cc(C(F)(F)F)ccc21`, the Ki was 5010 nM in assay [1], 6.31 nM in assay [2] and 398 nM in assay [3]. For the same molecule, the ED50 in the assay on Rattus norvegicus [6] was determined as 1.6 mg/kg. In addition, the Selectivity in assay [4] was 800; in assay [5], 60.
Regarding `O=C(Nc1ccc(OCc2ccccn2)nc1)N1CCc2cc(Br)ccc21`, the Ki in assay [1] is 2510 nM; in assay [2] it was 15.8 nM; in assay [3], 501 nM. The ED50 in the assay with Rattus norvegicus [6] worked out at 2.4 mg/kg. The Selectivity is 160 in assay [4] and 30 in assay [5].
In the case of `Cc1cc2c(cc1C(F)(F)F)N(C(=O)Nc1cnc(OCc3ccccn3)c(C)c1)CC2`, the figures for the Ki in assay [1], in assay [2] and in assay [3] were 39.8 nM, 0.398 nM and 7.94 nM, respectively. Further, the ED50 with Rattus norvegicus [6] worked out at 0.3 mg/kg. For the same molecule, the Selectivity in assay [4] turned out to be 100; in assay [5] it was 20.
As for `Cc1cc2c(cc1C(F)(F)F)N(C(=O)Nc1ccc(OCc3ncccc3C)nc1)CC2`, the results for the Ki in assay [1], in assay [2] and in assay [3] were 158 nM, 3.98 nM and 15.8 nM, respectively. Moreover, the Selectivity in assay [4] is 40; in assay [5] it was 4.
For `Cc1cc2c(cc1C(F)(F)F)N(C(=O)Nc1ccc(CCc3ccccn3)nc1)CC2` the same measures were 158 nM, 3.16 nM, 20 nM, 50 and 6.
For `Cc1cc2c(cc1C(F)(F)F)N(C(=O)Nc1ccc(OCCc3ccccn3)nc1)CC2` the same measures were 2000 nM, 10 nM, 20 nM, 200 and 2.
With `Cc1cccc(COc2ccc(NC(=O)N3CCc4cc(C)c(C(F)(F)F)cc43)cn2)n1`, the inhibition constant (Ki) in assay [1] is 1000 nM; in assay [2], 6.31 nM; in assay [3], 25.1 nM. Also, the Selectivity turned out to be 160 in assay [4] and 4 in assay [5].
`Cc1cc2c(cc1C(F)(F)F)N(C(=O)Nc1ccc(OCc3cnccn3)nc1)CC2`: the Ki in assay [1] was 316 nM; in assay [2], 0.501 nM; in assay [3] it was 10 nM. Also, in the assay on Rattus norvegicus [7], the Reversal was determined as 58%. For the same molecule, the Selectivity stood at 630 in assay [4] and 20 in assay [5].
Consider `Cc1cc2c(cc1C(F)(F)F)N(C(=O)Nc1ccc(OCc3ccccn3)nn1)CC2`, for which the Ki in assay [1] is 251 nM; in assay [2] it was 5.01 nM; in assay [3], 79.4 nM. Further, the Selectivity in assay [4] is 50; in assay [5], 15.
For `Cc1cc2c(cc1C(F)(F)F)N(C(=O)Nc1ccc(COc3ccccn3)nc1)CC2`, in that order: 100 nM, 5.01 nM, 200 nM, 20 and 40.
Regarding `Cc1cc2c(cc1Cl)N(C(=O)Nc1ccc(OCc3nccn3C)nc1)CC2`, the values for the inhibition constant (Ki) in assay [1], in assay [2] and in assay [3] were 251 nM, 5.01 nM and 12.6 nM, respectively. Also, the Selectivity in assay [4] came to 50; in assay [5], 2.5.
For `Cc1cc2c(cc1Cl)N(C(=O)Nc1ccc(OCc3ccncc3)nc1)CC2`, in that order: 79.4 nM, 1.26 nM, 7.94 nM, 60 and 6.
For `Cc1cc2c(cc1C(F)(F)F)N(C(=O)Nc1ccc(OCc3ccccn3)cc1)CC2`, the figures for the Ki in assay [1], in assay [2] and in assay [3] were 398 nM, 2.51 nM and 25.1 nM, respectively. For the same molecule, in the assay on Rattus norvegicus [7], the Reversal was 84%. The Selectivity is 160 in assay [4] and 10 in assay [5].
Regarding `Cc1cc2c(cc1C(F)(F)F)N(C(=O)Nc1ccc(OCc3cncn3C)nc1)CC2`, the results for the inhibition constant Ki in assay [1], in assay [2] and in assay [3] were 100 nM, 3.98 nM and 6.31 nM, respectively. The Selectivity in assay [4] was 25; in assay [5] it was 2.
On to `Cc1cc2c(cc1Cl)N(C(=O)Nc1ccc(OCc3nccs3)nc1)CC2`, for which the Ki was above 794 nM in assay [1], 5.01 nM in assay [2] and 100 nM in assay [3]. Moreover, the Reversal in the assay on Rattus norvegicus [7] amounted to 2%. For the same molecule, the Selectivity was above 160 in assay [4] and 20 in assay [5].
Turning to `O=C(Nc1ccc(OCc2ccccn2)nc1)N1CCc2ccc(C(F)(F)F)cc21`, the inhibition constant (Ki) was 251 nM in assay [1], 7.94 nM in assay [2] and 251 nM in assay [3]. For the same molecule, the Selectivity in assay [4] and in assay [5] was 30 in each case.
`O=C(Nc1ccc(OCc2ccccn2)nc1)N1CCc2c(Cl)cccc21`: the values for the inhibitory constant (Ki) in assay [1], in assay [2] and in assay [3] were 5010 nM, 79.4 nM and 1000 nM, respectively. Further, the Selectivity in assay [4] turned out to be 60; in assay [5], 13.
For the molecule `Cc1cc2c(cc1C(F)(F)F)N(C(=O)Nc1ccc(OCc3ccccn3)nc1)CC2`, the inhibition constant (Ki) is 631 nM in assay [1], 0.501 nM in assay [2] and 31.6 nM in assay [3]. For the same molecule, the ED50 in the assay with Rattus norvegicus [6] came out at 1 mg/kg. Also, the Selectivity in assay [4] came to 1300; in assay [5], 60.
On to `Cc1cc2c(cc1Cl)N(C(=O)Nc1ccc(OCc3ccccn3)nc1)CC2`, for which the figures for the inhibition constant (Ki) in assay [1], in assay [2] and in assay [3] were above 794 nM, 2.51 nM and 100 nM, respectively. Moreover, the Reversal in the assay with Rattus norvegicus [7] amounted to 41%. Besides, the Selectivity in assay [4] is above 320; in assay [5], 40.
